Experimental data published in PubChem BioAssay (NCI).
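Assay format: 96-well plates, 48-hour exposure. TGI denotes the concentration required for complete inhibition of growth.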

Experiments:
Assay in all cases: NCI-60 cell line screen, 48 h
[1] = system: KM12 colon
[2] = system: A549 NSCLC
[3] = system: EKVX NSCLC
[4] = system: COLO 205 colon
[5] = system: SK-MEL-5 melanoma
[6] = system: U251 CNS
[7] = system: OVCAR-3 ovarian
[8] = system: HL-60(TB) leukemia
[9] = system: LOX IMVI melanoma
[10] = system: MALME-3M melanoma
[11] = system: HCC-2998 colon
[12] = system: MCF7 breast
[13] = system: CCRF-CEM leukemia
[14] = system: SK-MEL-28 melanoma
[15] = system: SW-620 colon
[16] = system: HOP-62 NSCLC
[17] = system: NCI-H522 lung
[18] = system: SNB-19 CNS
[19] = system: IGROV1 ovarian
[20] = system: MDA-MB-435
[21] = system: HT29 colon
[22] = system: HS 578T breast
[23] = system: TK-10 renal
[24] = system: SF-539 CNS
[25] = system: DU-145 prostate
[26] = system: MDA-N
[27] = system: A498 renal
[28] = system: MDA-MB-231 breast
[29] = system: NCI-H460 lung
[30] = system: CAKI-1 renal
[31] = system: RPMI-8226 leukemia
[32] = system: OVCAR-8 ovarian
[33] = system: PC-3 prostate
[34] = system: MOLT-4 leukemia
[35] = system: K-562 leukemia
[36] = system: SR leukemia
[37] = system: T-47D breast
[38] = system: HOP-92 NSCLC
[39] = system: UO-31 renal
[40] = system: SK-MEL-2 melanoma
[41] = system: UACC-62 melanoma
[42] = system: SF-268 CNS
[43] = system: NCI-H23 lung
[44] = system: HCT-116 colon
[45] = system: SN12C renal
[46] = system: OVCAR-4 ovarian
[47] = system: UACC-257 melanoma
[48] = system: 786-0 renal
[49] = system: HCT-15 colon
[50] = system: SF-295 CNS
[51] = system: BT-549 breast
[52] = system: ACHN renal
[53] = system: SK-OV-3 ovarian
[54] = system: NCI-H226 lung
[55] = system: M14 melanoma
[56] = system: RXF 393 renal
[57] = system: SNB-75 CNS
[58] = system: OVCAR-5 ovarian

SMILES: O=c1cc(-c2ccccc2)oc2cc(Oc3nnnn3-c3ccccc3)ccc12
- TGI [1]: > 100 µM
- TGI [2]: > 100 µM
- TGI [3]: > 100 µM
- TGI [4]: > 100 µM
- TGI [5]: 42.4 µM
- TGI [6]: 41.4 µM
- TGI [7]: > 100 µM
- TGI [8]: > 100 µM
- TGI [9]: > 100 µM
- TGI [10]: > 100 µM
- TGI [11]: > 100 µM
- TGI [12]: 37.8 µM
- TGI [13]: > 100 µM
- TGI [14]: > 100 µM
- TGI [15]: > 100 µM
- TGI [16]: > 100 µM
- TGI [17]: > 100 µM
- TGI [18]: > 100 µM
- TGI [19]: > 100 µM
- TGI [20]: 46 µM
- TGI [21]: > 100 µM
- TGI [22]: 89.5 µM
- TGI [23]: > 100 µM
- TGI [24]: 85.4 µM
- TGI [25]: 94.1 µM
- TGI [26]: > 100 µM
- TGI [27]: 79.6 µM
- TGI [28]: > 100 µM
- TGI [29]: > 100 µM
- TGI [30]: 20.4 µM
- TGI [31]: > 100 µM
- TGI [32]: > 100 µM
- TGI [33]: > 100 µM
- TGI [34]: > 100 µM
- TGI [35]: > 100 µM
- TGI [36]: > 100 µM
- TGI [37]: 79.7 µM
- TGI [38]: 9.17 µM
- TGI [39]: 33.1 µM
- TGI [40]: 97.3 µM
- TGI [41]: > 100 µM
- TGI [42]: 52.2 µM
- TGI [43]: > 100 µM
- TGI [44]: > 100 µM
- TGI [45]: > 100 µM
- TGI [46]: 70.9 µM
- TGI [47]: 90.9 µM
- TGI [48]: > 100 µM
- TGI [49]: > 100 µM
- TGI [50]: > 100 µM
- TGI [51]: 52.1 µM
- TGI [52]: 13.9 µM
- TGI [53]: > 100 µM
- TGI [54]: > 100 µM
- TGI [55]: > 100 µM

SMILES: Cc1ncc([N+](=O)[O-])n1CCNC(=O)CCCn1ccnc1[N+](=O)[O-]
- TGI [1]: > 100 µM
- TGI [2]: > 100 µM
- TGI [56]: > 100 µM
- TGI [3]: > 100 µM
- TGI [4]: > 100 µM
- TGI [5]: > 100 µM
- TGI [6]: > 100 µM
- TGI [7]: > 100 µM
- TGI [8]: > 100 µM
- TGI [9]: > 100 µM
- TGI [10]: > 100 µM
- TGI [11]: > 100 µM
- TGI [12]: > 100 µM
- TGI [13]: > 100 µM
- TGI [14]: > 100 µM
- TGI [15]: > 100 µM
- TGI [16]: > 100 µM
- TGI [18]: > 100 µM
- TGI [19]: > 100 µM
- TGI [20]: > 100 µM
- TGI [21]: > 100 µM
- TGI [22]: > 100 µM
- TGI [23]: > 100 µM
- TGI [24]: > 100 µM
- TGI [25]: > 100 µM
- TGI [26]: > 100 µM
- TGI [27]: > 100 µM
- TGI [28]: > 100 µM
- TGI [57]: > 100 µM
- TGI [29]: > 100 µM
- TGI [30]: > 100 µM
- TGI [31]: > 100 µM
- TGI [32]: > 100 µM
- TGI [33]: > 100 µM
- TGI [34]: > 100 µM
- TGI [35]: > 100 µM
- TGI [36]: > 100 µM
- TGI [58]: > 100 µM
- TGI [37]: > 100 µM
- TGI [39]: > 100 µM
- TGI [40]: > 100 µM
- TGI [41]: > 100 µM
- TGI [42]: > 100 µM
- TGI [43]: > 100 µM
- TGI [44]: > 100 µM
- TGI [45]: > 100 µM
- TGI [46]: > 100 µM
- TGI [47]: > 100 µM
- TGI [48]: > 100 µM
- TGI [49]: > 100 µM
- TGI [50]: > 100 µM
- TGI [51]: > 100 µM
- TGI [52]: > 100 µM
- TGI [54]: > 100 µM
- TGI [55]: > 100 µM
